Assay results as given in patent US9284283B2, “Macrocyclic compounds for modulating IL-17” (ENSEMBLE THERAPEUTICS CORPORATION, priority 2012, dated 2016).

Key:
IL17A = biological target: T1, IL17A (Homo sapiens, UniProt Q16552); test: Surface Plasmon Resonance (SPR) analysis of compound interactions with IL17A; details: SPR binding to IL17A
T1 sequence (Q16552 24-155): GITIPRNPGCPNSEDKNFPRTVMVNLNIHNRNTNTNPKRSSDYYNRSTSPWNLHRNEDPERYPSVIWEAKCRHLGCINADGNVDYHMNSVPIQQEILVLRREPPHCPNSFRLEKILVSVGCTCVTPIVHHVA
Procedure, shortened: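 His-tagged IL17A captured on a Ni-NTA chip; five 2- or 3-fold compound dilutions from 50 μM injected for 180 s, 120 s dissociation, in HEPES-saline buffer with 0.5% DMSO. Baseline-subtracted sensorgrams fitted 1:1 for ka, kd and KD; Kd also derived from binding extent per concentration.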

[1] = tested on: IL-17-induced GROα secretion from HT-29 cells; test: HT-29 cellular assay (IL-17-induced GROα secretion); assay type: cell-based; details: Homo sapiens
Method: To test the ability of a compound of the invention to neutralize or antagonize IL-17 bioactivity, the following cell-based assay was used. IL-17 can stimulate epithelial cells and other cells to secrete GROα. The ability of a compound of the invention to neutralize IL-17-induced GROα secretion from the human colorectal adenocarcinoma epithelial cell line HT-29 is tested in this assay.
HT-29 cells (human colorectal adenocarcinoma epithelial cells, ATCC #HTB-38), were maintained in culture/assay medium in tissue culture-treated flasks using standard techniques. HT-29 cells were grown in tissue culture flasks until they were 50-80% confluent on the day before the assay. The day before the assay, the cells were detached from the culture flasks with trypsin+EDTA. The trypsin was inactivated with complete assay medium. HT-29 cells were then centrifuged at 500×g for 5 minutes at room temperature. The cell pellet was then re-suspended in Defined Keratinocyte SFM (Invitrogen #10766019)+10% FCS and 50,000 HT-29 cells (in 100 μl) were added to each treatment well of the 96-well plates. The 96-well plates were placed in a tissue culture incubator (37° C., 5% CO2) overnight. The next day, the media was removed from the cells and the cells were washed twice with Defined Keratinocyte SFM. In a separate 96-well plate, compounds to be tested were serially diluted in Defined Keratinocyte SFM and run in triplicate in 100 μL total volume. To these compound samples were then added 100 μL of human IL-17 at a concentration of 20 ng/mL in Defined Keratinocyte SFM for serum-free assays. 150 μL of the compound/IL-17 mixture was then added to the cells from which the media has previously been removed. The cells were grown for 48 hours in Defined Keratinocyte SFM in a tissue culture incubator (37° C., 5% CO2).
At the end of the incubation, the plates are centrifuged (500×g for 5 minutes at room temperature), and the cell culture media is transferred to polypropylene 96-well plates. The supernatant was used neat in the ELISA. GROα levels are measured with a GROα sandwich ELISA (R+D Systems DuoSet #DY275E), as per the manufacturer's instructions. The ELISA plates were previously coated with mAb 275 (R+D Systems) at 4 μg/mL. GROα is detected using biotinylated goat anti-human GROα (R+D Systems BAF275) at 200 ng/mL using TMB as a substrate. At the end of the ELISA reactions, plates are read at 450 nm on a microplate reader and compared to a standard calibration curve.

[2] = tested on: IL-17A induced secretion of IL-6 in primary human RASF cells; test: Inhibition of IL17A induced secretion of IL6 in human rheumatoid arthritis synovial fibroblast (RASF) cells; assay type: cell-based; details: Homo sapiens, Fibroblast
Procedure, shortened: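 Primary RASF cells (passage 2-8) stimulated 20 h at 37 °C with rhIL-17A (30 ng/mL) pre-incubated 1 h with compound (final 0.03-25 μM, 0.25% DMSO). Supernatant IL-6 measured by ELISA, normalized to WST1 viability; triplicates.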

[3] = biological target: T2, recombinant human IL17a (binding to its receptor IL17R) (Homo sapiens, UniProt Q16552); test: IL-17 competition ELISA I (IL17a coated, IL17R/Fc binding)
T2 construct: purchased R&D Systems 317-ILB (IL17a); 177-IR (IL17R/Fc)
T2 sequence (Q16552 20-155 limits assumed): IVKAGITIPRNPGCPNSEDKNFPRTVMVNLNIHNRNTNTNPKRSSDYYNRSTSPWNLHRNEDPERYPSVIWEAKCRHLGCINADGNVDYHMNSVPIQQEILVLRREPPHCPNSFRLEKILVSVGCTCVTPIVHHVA
Procedure, shortened: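 Plates coated with 20 nM recombinant human IL17a received compound dilutions and 12 nM IL17R/Fc (final) for 30 min at room temperature. Bound receptor was detected with HRP anti-human Fc and TMB, read at 450 nm. IC50 came from a 4-parameter logistic fit between no-competitor and blank controls.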

[4] = biological target: T3, biotinylated human IL-17 (binding to IL17R/Fc) (Homo sapiens, UniProt Q16552); test: IL-17 competition ELISA II (captured IL17R/Fc, biotinylated IL-17)
T3 construct: purchased R&D Systems 317-ILB (IL-17, biotinylated); 177-IR (IL17R/Fc)
T3 sequence (Q16552 20-155 limits assumed): T2 sequence (Q16552 20-155 limits assumed)
Procedure, shortened: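 Competition read-out: absorbance at 450 nm after streptavidin-HRP/TMB detection, fitted to a 4-parameter logistic model bounded by no-competitor and blank wells to give IC50. Compound was serially diluted 5-fold from 1 μM alongside 20 nM (stock) biotinylated IL-17 on IL17R/Fc (10 nM) captured via goat anti-human IgG, 30 min at room temperature.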

DNFB-treated BALB/c mice = test: Murine model of delayed hypersensitivity (DNFB-induced ear edema); assay type: in vivo, mouse; details: po; for Reduction in edema (%): ear weight 24 h after DNFB challenge; for IFNγ Reduction (%) / IL6 Reduction (%) / CXCL1 Reduction (%): plasma
Method: We used a murine model of fluorodinitrobenzene (DNFB)-induced ear edema to test the anti-inflammatory activity of both orally dosed and intraperitoneally dosed exemplary compounds of the invention. BALB/c mice (Harlan Sprague-Dawley, Inc., male, 6-8 weeks old) were topically treated on their shaved abdomen with 30 μL of 0.5% 1-fluoro-2,4-dinitrobenzene (DNFB) (4:1 acetone:olive oil) once on Day 0 and once on Day 1.
For oral dosing (“PO”), exemplary compounds of the invention were either suspended at 3 mg/mL in 20% Cremophor EL (Sigma) (20:80; Cremophor:water) or dissolved at 1 mg/mL or 3 mg/mL in D-α-tocopherol polyethylene glycol 1000 succinate (TPGS; Sigma)/PEG-400/water (20:60:20). For intraperitoneal dosing (“IP”), exemplary compounds of the invention were dissolved in DMSO at a concentration of 5 mg/mL. On day 7, the test compound was administered (PO at either 10 mg/kg or 30 mg/kg; IP at 1, 3, or 10 mg/kg) to DNFB-treated mice. Commercially available anti-mouse IL-17A (BioLegend) administered intraperitoneally at 5 mg/kg in PBS was used as a positive control. Thirty minutes later, 20 μL of 0.2% DNFB was applied to the right ear of animals and vehicle ([…]:olive oil) was applied to the left ear. One and four hours after DNFB challenge, a subset of mice was exsanguinated and plasma prepared from the blood. Twenty-four hours after challenge, the remaining mice were euthanized, and their ears were removed and weighed to determine the amount of edema. Plasma was assayed for interleukin-6, TNF-α, CXCL1, and interferon-γ concentrations using commercially-available assays.

Structure (SMILES)	Kd (IL17A)	IC50 [3]	IC50 [2]	further results
COC(=O)[C@H]1CCCCNC(=O)CNC(=O)[C@@H](Cc2ccc(NC(=O)[C@H](Cc3ccccc3Cl)NC(=O)c3ccccc3)cc2)NC(=O)CC2(CCCC2)CC(=O)N1 [Compound 142]	< 0.1 µM			IC50 [1]: 1 to 10 µM
COC(=O)N[C@@H](Cc1ccccc1Cl)C(=O)Nc1ccc(C[C@H]2NC(=O)CC3(CCCC3)CC(=O)NCCOCCOCCNC2=O)cc1 [Compound 465]				IC50 [4]: < 0.1 µM; Reduction in edema (%) (DNFB-treated BALB/c mice; 30 mg/kg): 23.5%; IFNγ Reduction (%) (DNFB-treated BALB/c mice; 30 mg/kg): 47.4%; IL6 Reduction (%) (DNFB-treated BALB/c mice; 30 mg/kg): 42.5%
O=C1CNC(=O)[C@@H](Cc2ccc(NC(=O)[C@H](Cc3ccccc3Cl)NC(=O)c3ccccn3)cc2)NC(=O)CC2(CCCC2)CC(=O)NCCCCCN1 [Compound 195]	0.1 to 1 µM	0.1 to 1 µM		IC50 [4]: < 0.1 µM
COC(=O)[C@@H]1CCCCNC(=O)CCCNC(=O)[C@@H](Cc2ccc(NC(=O)[C@H](Cc3ccccc3Br)NC(=O)Cc3ccccc3)cc2)NC(=O)CC2(CCCC2)CC(=O)N1 [Compound 120]				IC50 [1]: 1 to 10 µM
O=C1CC2(CCCC2)CC(=O)N[C@H](Cc2ccc(NC(=O)[C@H](Cc3ccccc3Cl)NC(=O)C(F)(F)c3ccccc3)cc2)C(=O)NCCOCCOCCN1 [Compound 475]			0.1 to 1 µM	IC50 [4]: < 0.1 µM; Reduction in edema (%) (DNFB-treated BALB/c mice; 10 mg/kg): 19.2%; CXCL1 Reduction (%) (DNFB-treated BALB/c mice; 10 mg/kg): 61.4%; IFNγ Reduction (%) (DNFB-treated BALB/c mice; 10 mg/kg): 11.3%; IL6 Reduction (%) (DNFB-treated BALB/c mice; 10 mg/kg): 29.7%; Reduction in edema (%) (DNFB-treated BALB/c mice; 30 mg/kg): 49.5%; CXCL1 Reduction (%) (DNFB-treated BALB/c mice; 30 mg/kg): 63.0%; IFNγ Reduction (%) (DNFB-treated BALB/c mice; 30 mg/kg): 45.0%; IL6 Reduction (%) (DNFB-treated BALB/c mice; 30 mg/kg): 51.9%
O=C1CNC(=O)[C@@H](Cc2ccc(NC(=O)[C@H](Cc3ccccc3Cl)NC(=O)Cc3ccccc3)cc2)NC(=O)CC2(CCCC2)CC(=O)NCCOCCN1 [Compound 209]	< 0.1 µM	< 0.1 µM	1 to 10 µM	
CC[C@H](C)[C@H](NC(=O)Cc1ccccc1)C(=O)Nc1ccc(C[C@H]2NC(=O)CC3(CCCC3)CC(=O)N[C@H](C(=O)OC)CCCCNC(=O)CCCNC2=O)cc1 [Compound 122]	1 to 10 µM	1 to 10 µM	1 to 10 µM	
O=C1CNC(=O)[C@@H](Cc2ccc(NC(=O)[C@H](Cc3ccccc3Br)NC(=O)Cc3ccc(O)cc3)cc2)NC(=O)CC2(CCCC2)CC(=O)NCCCCCN1 [Compound 211]	< 0.1 µM	< 0.1 µM	1 to 10 µM	
O=C1CNC(=O)[C@@H](Cc2ccc(NC(=O)[C@H](Cc3ccccc3Cl)NC(=O)Cc3ccncc3)cc2)NC(=O)CC2(CCCC2)CC(=O)NCCCCCN1 [Compound 202]	< 0.1 µM	< 0.1 µM		
O=C1CNC(=O)[C@@H](Cc2ccc(NC(=O)[C@H](Cc3ccco3)NC(=O)Cc3ccccc3)cc2)NC(=O)CC2(CCCC2)CC(=O)NCCCCCN1 [Compound 230]	< 0.1 µM	< 0.1 µM		
O=C1CNC(=O)[C@@H](Cc2ccc(NC(=O)[C@H](Cc3ccccc3Cl)NC(=O)Cc3ccccc3)cc2)NC(=O)CC2(CCCCC2)CC(=O)NCCCCCN1 [Compound 223]	< 0.1 µM	< 0.1 µM		
O=C1CNC(=O)[C@@H](Cc2ccc(NC(=O)[C@H](Cc3ccccc3Cl)NC(=O)c3ccc(Cl)cc3)cc2)NC(=O)CC2(CCCC2)CC(=O)NCCCCCN1 [Compound 205]	< 0.1 µM	< 0.1 µM		
O=C1CNC(=O)[C@@H](Cc2ccc(NC(=O)[C@H](Cc3ccc(O)cc3)NC(=O)Cc3ccccc3)cc2)NC(=O)CC2(CCCC2)CC(=O)NCCCCCN1 [Compound 183]	0.1 to 1 µM	1 to 10 µM		

More lines, main results first:

Kd (IL17A)	IC50 [3]	Structure (SMILES)	IC50 [2]	further results
< 0.1 µM	< 0.1 µM	CC(C)(C)C(=O)N[C@@H](Cc1ccccc1Cl)C(=O)Nc1ccc(C[C@H]2NC(=O)CC3(CCCC3)CC(=O)NCCCCCNC(=O)CNC2=O)cc1 [Compound 206]	1 to 10 µM	
< 0.1 µM	< 0.1 µM	O=C1CNC(=O)[C@@H](Cc2ccc(NC(=O)[C@H](Cc3ccccc3Cl)NC(=O)Cc3ccccc3O)cc2)NC(=O)CC2(CCCC2)CC(=O)NCCCCCN1 [Compound 216]	1 to 10 µM	
< 0.1 µM	< 0.1 µM	O=C1CNC(=O)[C@@H](Cc2ccc(NC(=O)[C@@H](NC(=O)Cc3ccc(O)cc3)C3CCCCC3)cc2)NC(=O)CC2(CCCC2)CC(=O)NCCCCCN1 [Compound 192]	1 to 10 µM	
< 0.1 µM	0.1 to 1 µM	O=C1CNC(=O)[C@@H](Cc2ccc(NC(=O)[C@H](Cc3ccccc3Cl)NC(=O)c3cncnc3)cc2)NC(=O)CC2(CCCC2)CC(=O)NCCCCCN1 [Compound 201]	> 10 µM	
< 0.1 µM		O=C1CNC(=O)[C@@H](Cc2ccc(NC(=O)[C@H](Cc3ccccc3Cl)NC(=O)Cc3ccccc3)cc2)NC(=O)CC2(CCCC2)CC(=O)N(CCO)CCCCCN1 [Compound 168]	1 to 10 µM	
< 0.1 µM	< 0.1 µM	CC(=O)N[C@@H](Cc1ccccc1Cl)C(=O)Nc1ccc(C[C@H]2NC(=O)CC3(CCCC3)CC(=O)NCCCCCNC(=O)CNC2=O)cc1 [Compound 153]	1 to 10 µM	
< 0.1 µM	0.1 to 1 µM	CC(=O)N[C@@H](Cc1ccccc1Cl)C(=O)Nc1ccc(C[C@H]2NC(=O)CC3(CCCC3)CC(=O)N(CCO)CCCCCNC(=O)CNC2=O)cc1 [Compound 169]	> 10 µM	
< 0.1 µM	0.1 to 1 µM	O=C1CNC(=O)[C@@H](Cc2ccc(NC(=O)[C@H](Cc3ccccc3Cl)NC(=O)c3ccc(F)cc3)cc2)NC(=O)CC2(CCCC2)CC(=O)NCCCCCN1 [Compound 227]	1 to 10 µM	
< 0.1 µM	0.1 to 1 µM	O=C1CNC(=O)[C@@H](Cc2ccc(NC(=O)[C@H](Cc3ccccc3Cl)NC(=O)C3CCCCC3)cc2)NC(=O)CC2(CCCC2)CC(=O)NCCCCCN1 [Compound 207]		
